Measurements from publication PMC8889550 (JACS Au, 2022).

Target: T1, horseradish peroxidase (HRP) (Armoracia rusticana, UniProt P00433)
T1 sequence (P00433 31-338): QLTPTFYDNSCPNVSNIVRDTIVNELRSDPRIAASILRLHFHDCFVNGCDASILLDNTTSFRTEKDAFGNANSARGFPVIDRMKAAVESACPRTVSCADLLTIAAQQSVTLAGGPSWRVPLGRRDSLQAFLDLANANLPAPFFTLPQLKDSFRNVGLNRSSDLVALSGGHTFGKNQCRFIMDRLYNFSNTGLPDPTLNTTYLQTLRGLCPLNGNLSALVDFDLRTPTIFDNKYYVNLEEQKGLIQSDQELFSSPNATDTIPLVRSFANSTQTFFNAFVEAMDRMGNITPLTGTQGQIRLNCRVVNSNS
Assay: coupled GOx/HRP cascade, Resorufin formation in plate reader
Format: biochemical
Details: 200 μM Amplex Red; H2O2 generated by GOx from glucose; DNA-functionalized enzyme

coupled GOx/HRP cascade, Resorufin formation in plate reader: Amplex Red → Resorufin catalyzed by HRP
Structure (SMILES): CC(=O)N1c2ccc(O)cc2Oc2cc(O)ccc21 [Amplex Red]
